Key:
Format in all cases: cell-based
[1] = system: HTT mRNA; experiment: Splicing RT-qPCR assay (THP), Table 2A; settings: Table 2A, THP; for AC50: HTT alternative junction (AJ) mRNA, read-out: HTT AJ (AC50, increase in alternative junction mRNA); for IC50: HTT canonical junction (CJ) mRNA, read-out: HTT CJ (IC50, decrease in canonical junction mRNA)
[2] = system: HTT mRNA; experiment: Gene panel canonical junction qPCR assay, decrease in CJ mRNA, Table 3; settings: decrease in CJ mRNA levels, canonical junction qPCR, gene panel
Method in brief: (§1)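 A673 (DMEM, 10% FBS, 15,000 cells/well) or K562 (IMDM, 10% FBS) cells treated 24 h at 37 °C with 11-point 3-fold dilutions, top 10 uM, DMSO ≤0.25%. Canonical exon-exon junction mRNA measured by RT-qPCR, normalized to GAPDH, GUSB or PPIA and DMSO (ΔΔCt); IC50 from 4-parameter logistic fit.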

[3] = system: MYB mRNA; experiment: as above; settings: decrease in CJ mRNA levels, canonical junction qPCR, gene panel
Method in brief: as §1

[4] = system: MYB mRNA; experiment: Splicing RT-qPCR assay (THP), Table 2A; settings: Table 2A, THP; for AC50: MYB alternative junction (AJ) mRNA, read-out: MYB AJ (AC50, increase in alternative junction mRNA); for IC50: MYB canonical junction (CJ) mRNA, read-out: MYB CJ (IC50, decrease in canonical junction mRNA)
[5] = system: SH-SY5Y (human neuroblastoma) cells; experiment: Cell viability, Cell Titer Glo 2.0 assay; settings: read-out: Viability SHSY5Y.3 GI50
Method in brief: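 Toxicity screen in SH-SY5Y cells. Compounds were serially diluted in DMSO and then in medium, giving 0.1% DMSO final. Viability was read with CellTiter-Glo 2.0 after 72 h at 37 °C, 5% CO2, against medium-only blank wells.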

SMILES | AC50 [1] [µM] | IC50 [1] [µM] | IC50 [2] [µM] | IC50 [3] [µM] | AC50 [4] [µM] | IC50 [4] [µM] | GI50 [5] [µM]
COc1nc2c(C(=O)Nc3cn4cc(C)nc(C)c4n3)ccc(N3CCC(NC4CC4)CC3)c2s1 [Compound 667, 7-(4-(cyclopropylamino)-piperidin-1-yl)-N-(6,8-dimethylimidazo[1,2-a]pyrazin-2-yl)-2-methoxy-benzo[d]thiazole-4-carboxamide 2,2,2-trifluoroacetate] | > 10 | > 10 | > 10 | > 10 | 1 to 10 | > 10 | 1 to 10
COc1nc2c(C(=O)Nc3cc4cn(C)nc4cc3OC)ccc(N3CCC(NC4CC4)CC3)c2s1 [Compound 668, 7-(4-(cyclopropylamino)-piperidin-1-yl)-2-methoxy-N-(6-methoxy-2-methyl-2H-indazol-5-yl)benzo[d]-thiazole-4-carboxamide 2,2,2-trifluoroacetate] | 1 to 10 | 1 to 10 | 1 to 10 | 0.1 to 1 | 0.1 to 1 | 0.1 to 1 | 0.1 to 1
CCNC1CCN(c2ccc(C(=O)Nc3cc4cn(C)nc4cc3OC)c3nc(OC)sc23)CC1 [Compound 669, 7-[4-(ethylamino)-1-piperidyl]-2-methoxy-N-(6-methoxy-2-methyl-indazol-5-yl)-1,3-benzo-thiazole-4-carboxamide] | 1 to 10 | 1 to 10 | 1 to 10 | 1 to 10 | 0.1 to 1 | 1 to 10 | 1 to 10
CCNC1CCN(c2ccc(C(=O)Nc3cn4cc(C)nc(C)c4n3)c3nc(OC)sc23)CC1 [Compound 670, N-(6,8-dimethyl-imidazo[1,2-a]-pyrazin-2-yl)-7-[4-(ethylamino)-1-piperidyl]-2-methoxy-1,3-benzothiazole-4-carboxamide] | > 10 | 1 to 10 | 1 to 10 | > 10 | > 10 | > 10 | > 10
COc1nc2c(C(=O)Nc3cc4cn(C)nc4cc3OC)ccc(N3C[C@H](C)N[C@@H](C)C3)c2s1 [Compound 671, 7-[(3S,5S)-3,5-dimethyl-piperazin-1-yl]-2-methoxy-N-(6-methoxy-2-methyl-indazol-5-yl)-1,3-benzothiazole-4-carboxamide] | 1 to 10 | > 10 | > 10 | 0.1 to 1 | 0.1 to 1 | 0.1 to 1 | 1 to 10
COc1nc2c(C(=O)Nc3cc(F)c4nn(C)cc4c3)ccc(N3C[C@H](C)N[C@@H](C)C3)c2s1 [Compound 675, 7-[(3S,5S)-3,5-dimethylpiperazin-1-yl]-N-(7-fluoro-2-methyl-indazol-5-yl)-2-methoxy-1,3-benzothiazole-4-carboxamide] | < 0.1 | < 0.1 | < 0.1 | < 0.1 | < 0.1 | < 0.1 | < 0.1
COc1nc2c(N3CCC(NC4CC4)CC3)ccc(C(=O)Nc3cc4cn(C)nc4cc3OC)c2o1 [Compound 679, 4-[4-(cyclopropylamino)-1-piperidyl]-2-methoxy-N-(6-methoxy-2-methyl-indazol-5-yl)-1,3-benzoxazole-7-carboxamide] | 1 to 10 | 1 to 10 | 1 to 10 | 0.1 to 1 | < 0.1 | 0.1 to 1 | 1 to 10
COc1nc2c(N3CCC(NC4CC4)CC3)ccc(C(=O)Nc3cn4cc(C)nc(C)c4n3)c2o1 [Compound 680, 4-(4-(cyclopropylamino)-piperidin-1-yl)-N-(6,8-dimethylimidazo-[1,2-a]-pyrazin-2-yl)-2-methoxy-benzo[d]-oxazole-7-carboxamide] | > 10 | > 10 | > 10 | 1 to 10 | 1 to 10 | 1 to 10 | > 10
COc1nc2c(C(=O)Nc3cc4cn(C)nc4cc3OC)ccc(N3CCC(NC4CC4)CC3)c2o1 [Compound 681, 7-[4-(cyclopropylamino)-1-piperidyl]-2-methoxy-N-(6-methoxy-2-methyl-indazol-5-yl)-1,3-benzoxazole-4-carboxamide] | 0.1 to 1 | 0.1 to 1 | 0.1 to 1 | 0.1 to 1 | < 0.1 | 0.1 to 1 | 0.1 to 1
COc1nc2c(C(=O)Nc3cc(F)c4nn(C)cc4c3)ccc(N3C[C@H](C)N[C@@H](C)C3)c2o1 [Compound 682, 7-[(3S,5S)-3,5-dimethylpiperazin-1-yl]-N-(7-fluoro-2-methyl-indazol-5-yl)-2-methoxy-1,3-benzoxazole-4-carboxamide] | 0.1 to 1 | 0.1 to 1 | 0.1 to 1 | < 0.1 | < 0.1 | < 0.1 | < 0.1
CCNC1C(C)CN(c2ccc(C(=O)Nc3cn4cc(C)nc(C)c4n3)c3nn(C)cc23)CC1C (centres unmarked) [Compound 686] | > 10 | > 10 | > 10 | > 10 | > 10 | > 10 | > 10
CCNC1C(C)CN(c2ccc(C(=O)Nc3cc4cn(C)nc4cc3OC)c3nn(C)cc23)CC1C (centres unmarked) [Compound 687] | > 10 | > 10 | > 10 | 1 to 10 | 1 to 10 | 1 to 10 | > 10
COc1cc2c(N3CCC(NC4CC4)CC3)ccc(C(=O)Nc3cn4cc(C)nc4c(F)c3OC)n2n1 [Compound 688, 4-[4-(cyclopropylamino)-1-piperidyl]-N-(8-fluoro-7-methoxy-2-methyl-imidazo[1,2-a]pyridin-6-yl)-2-methoxy-pyrazolo[1,5-a]pyridine-7-carboxamide] | 0.1 to 1 | < 0.1 | < 0.1 | < 0.1 | < 0.1 | < 0.1 | < 0.1
COc1cc2c(N3CCC(NC4CC4)CC3)ccc(C(=O)Nc3cc(F)c4nc(C)cn4c3)n2n1 [Compound 689, 4-[4-(cyclopropylamino)-1-piperidyl]-N-(8-fluoro-2-methyl-imidazo[1,2-a]pyridin-6-yl)-2-methoxy-pyrazolo[1,5-a]pyridine-7-carboxamide] | 0.1 to 1 | < 0.1 | < 0.1 | < 0.1 | < 0.1 | < 0.1 | < 0.1
COc1nc2c(C(=O)Nc3cc(F)c4nc(C)cn4c3)ccc(N3CCC(NC4CC4)CC3)c2o1 [Compound 690, 7-[4-(cyclopropylamino)-1-piperidyl]-N-(8-fluoro-2-methyl-imidazo[1,2-a]pyridin-6-yl)-2-methoxy-1,3-benzoxazole-4-carboxamide] | 0.1 to 1 | < 0.1 | < 0.1 | < 0.1 | < 0.1 | < 0.1 | 0.1 to 1
COc1nc2c(N3C[C@H](C)N[C@@H](C)C3)ccc(C(=O)Nc3cc(F)c4nn(C)cc4c3)c2o1 [Compound 691, 4-[(3S,5S)-3,5-dimethylpiperazin-1-yl]-N-(7-fluoro-2-methyl-indazol-5-yl)-2-methoxy-1,3-benzoxazole-7-carboxamide] | > 10 | > 10 | > 10 | 0.1 to 1 | 0.1 to 1 | 0.1 to 1 | 1 to 10
CCNC1CCN(c2cc(F)c(C(=O)Nc3cn4ccnc4nc3OC)c3nn(C)cc23)CC1 [Compound 692, 4-[4-(ethylamino)-1-piperidyl]-6-fluoro-N-(7-methoxyimidazo[1,2-a]pyrimidin-6-yl)-2-methyl-indazole-7-carboxamide] | 0.1 to 1 | 1 to 10 | 1 to 10 | < 0.1 | < 0.1 | < 0.1 | 1 to 10
Cc1cn2cc(NC(=O)c3ccc(N4CCC(NC5CC5)CC4)c4cn(C)nc34)nc2c(CNS(C)(=O)=O)n1 [Compound 694, 4-(4-(cyclopropylamino)piperidin-1-yl)-2-methyl-N-(6-methyl-8-(methylsulfonamidomethyl)imidazo[1,2-a]pyrazin-2-yl)-2H-indazole-7-carboxamide 2,2,2-trifluoroacetate] | > 10 | > 10 | > 10 | > 10 | > 10 | > 10 | > 10
COc1cc2c(N3CCC(NC4CC4)CC3)ccc(C(=O)Nc3cc(C)c4nc(C)cn4n3)n2n1 [Compound 695, 4-[4-(cyclopropylamino)-1-piperidyl]-N-(2,8-dimethylimidazo[1,2-b]pyridazin-6-yl)-2-methoxy-pyrazolo[1,5-a]pyridine-7-carboxamide] | 1 to 10 | 1 to 10 | 1 to 10 | 1 to 10 | 1 to 10 | 1 to 10 | 1 to 10
COc1cc2nn(C)cc2cc1NC(=O)c1cc(C)c(N2CCC(NC3CC3)CC2)c2cn(C)nc12 [Compound 696] | > 10 | > 10 | > 10 | > 10 | > 10 | > 10 | 1 to 10
